# Calls of active or inactive are those of the source. The rule behind the calls is not given here.
# Legend:
# HepG2 = assay: Inhibition of glycogenolysis in human HepG2 cells assessed as GCN-stimulated glycogen breakdown after 5 mins; type: functional, cell-based; details: HepG2, 5 min
# [1] = Inhibition of recombinant human liver glycogen phosphorylase a expressed in baculovirus-infected Sf9 cells using glucose-1-phosphate as substrate in presence of 7.5 mM glucose
# [2] = Aqueous solubility of compound; type: physicochemical; details: buffer
# Hepatocyte = assay: Inhibition of glycogenolysis in rat hepatocytes assessed as GCN-stimulated glycogen breakdown after 5 mins; type: functional, cell-based
# [3] = Inhibition of rabbit muscle Glycogen phosphorylase measured phosphate release from glucose-1-phosphate; set-up: species or system Oryctolagus cuniculus
# Mus musculus [4] = assay: Hypoglycemic activity in adrenaline-induced diabetic mouse assessed as fasted plasma glucose level at 50 mg/kg, po measured immediately (reference value: 4.84 +/- 0.15); type: functional
# Mus musculus [5] = assay: Hypoglycemic activity in adrenaline-induced diabetic mouse assessed as fasted plasma glucose level at 50 mg/kg, po measured after 90 min (reference value: 7.56 +/- 0.49); type: functional
# [6] = Clearance in mouse liver microsomes; type: ADME, Microsome
# Mus musculus [7] = assay: Hypoglycemic activity in adrenaline-induced diabetic mouse assessed as glucose AUC at 25 mg/kg, po measured up to 90 min (reference value: 482.63 +/- 21.01 mg/dL.min); type: functional, organism-based; set-up: dose 25 mg/kg, time < 1.5 hr
# [8] = Stability of compound in simulated gastric fluid assessed as compound degradation measured up to 24 hrs; type: physicochemical; details: simulated gi fluid
# physchem = details: buffer, pH 7.4
# Description: Kinetic solubility of compound at pH 7.4 by high-throughput kinetic solubility assay
# Mus musculus [9] = assay: Hypoglycemic activity in adrenaline-induced diabetic mouse assessed as fasted plasma glucose level at 25 mg/kg, po measured after 30 min (reference value: 9.58 +/- 0.44); type: functional
# Mus musculus [10] = assay: Hypoglycemic activity in adrenaline-induced diabetic mouse assessed as fasted plasma glucose level at 12.5 mg/kg, po measured after 60 min (reference value: 8.41 +/- 0.48); type: functional
# Mus musculus [11] = assay: Hypoglycemic activity in adrenaline-induced diabetic mouse assessed as fasted plasma glucose level at 12.5 mg/kg, po measured after 30 min (reference value: 9.58 +/- 0.44); type: functional
# Mus musculus [12] = assay: Hypoglycemic activity in adrenaline-induced diabetic mouse assessed as fasted plasma glucose level at 12.5 mg/kg, po measured after 90 min (reference value: 7.56 +/- 0.49); type: functional
# Mus musculus [13] = assay: Hypoglycemic activity in adrenaline-induced diabetic fasted mouse assessed as reduction in plasma glucose level at 12.5 to 50 mg/kg, po; type: functional, organism-based
# Mus musculus [14] = assay: Hypoglycemic activity in adrenaline-induced diabetic mouse assessed as fasted plasma glucose level at 50 mg/kg, po measured after 30 min (reference value: 9.58 +/- 0.44); type: functional
# [15] = Intrinsic clearance in mouse liver microsomes; type: ADME, Microsome
# [16] = Stability of compound in simulated intestinal fluid assessed as compound degradation measured up to 1 hr; type: physicochemical; details: simulated gi fluid
# [17] = Stability of compound in mouse plasma assessed as compound degradation measured up to 24 hrs; type: ADME, cell-free
# Mus musculus [18] = assay: Hypoglycemic activity in adrenaline-induced diabetic mouse assessed as fasted plasma glucose level at 25 mg/kg, po measured after 60 min (reference value: 8.41 +/- 0.48); type: functional
# Mus musculus [19] = assay: Hypoglycemic activity in adrenaline-induced diabetic mouse assessed as fasted plasma glucose level at 25 mg/kg, po measured after 90 min (reference value: 7.56 +/- 0.49); type: functional
# Mus musculus [20] = assay: Hypoglycemic activity in adrenaline-induced diabetic mouse assessed as glucose AUC at 12.5 mg/kg, po measured up to 90 min (reference value: 482.63 +/- 21.01 mg/dL.min); type: functional, organism-based; set-up: time < 1.5 hr, dose 12.5 mg/kg
# Mus musculus [21] = assay: Hypoglycemic activity in adrenaline-induced diabetic mouse assessed as glucose AUC at 50 mg/kg, po measured up to 90 min (reference value: 482.63 +/- 21.01 mg/dL.min); type: functional, organism-based; set-up: time < 1.5 hr, dose 50 mg/kg
# Mus musculus [22] = assay: Hypoglycemic activity in adrenaline-induced diabetic mouse assessed as fasted plasma glucose level at 25 mg/kg, po measured immediately (reference value: 4.84 +/- 0.15); type: functional
# [23] = Lipophilicity, log D of the compound in 1-Octanol-phosphate buffer at pH 7.4; type: physicochemical
# [24] = Stability of compound in simulated intestinal fluid assessed as compound degradation measured up to 6 hrs; type: physicochemical; details: simulated gi fluid
# Mus musculus [25] = assay: Hypoglycemic activity in adrenaline-induced diabetic mouse assessed as fasted plasma glucose level at 50 mg/kg, po measured after 60 min (reference value: 8.41 +/- 0.48); type: functional
# [26] = Half life in mouse liver microsomes; type: ADME, Microsome
# Mus musculus [27] = assay: Hypoglycemic activity in adrenaline-induced diabetic mouse assessed as fasted plasma glucose level at 12.5 mg/kg, po measured immediately (reference value: 4.84 +/- 0.15); type: functional
# Mus musculus [28] = species: Mus musculus; assay: Hypoglycemic activity in adrenaline-induced diabetic mouse assessed as blood glucose level measured at 1.5 hrs (reference value: 486.15 +/- 22.65 mg/dl); type: functional
# Mus musculus [29] = assay: Hypoglycemic activity in adrenaline-induced diabetic mouse assessed as fasted plasma glucose level at 200 mg/kg, po measured after 90 min (reference value: 7.56 +/- 0.49); type: functional
# Mus musculus [30] = assay: Hypoglycemic activity in adrenaline-induced diabetic mouse assessed as glucose AUC at 200 mg/kg, po measured up to 90 min (reference value: 482.63 +/- 21.01 mg/dL.min); type: functional, organism-based; set-up: dose 200 mg/kg, time < 1.5 hr
# Mus musculus [31] = assay: Hypoglycemic activity in adrenaline-induced diabetic mouse assessed as fasted plasma glucose level at 200 mg/kg, po measured after 60 min (reference value: 8.41 +/- 0.48); type: functional
# Mus musculus [32] = assay: Hypoglycemic activity in adrenaline-induced diabetic mouse assessed as fasted plasma glucose level at 200 mg/kg, po measured after 30 min (reference value: 9.58 +/- 0.44); type: functional
# Mus musculus [33] = assay: Hypoglycemic activity in adrenaline-induced diabetic mouse assessed as fasted plasma glucose level at 200 mg/kg, po measured immediately (reference value: 4.84 +/- 0.15); type: functional
# [34] = Stability of compound in mouse plasma assessed as compound degradation measured up to 0.5 hrs; type: ADME, cell-free
# [35] = Stability of compound in simulated gastric fluid assessed as compound degradation measured up to 24 hrs relative to control; type: physicochemical; details: read-out: Drug degradation
SMILES,IC50 (HepG2) [nM],IC50 (Hepatocyte) [nM],IC50 [3] [nM],CLint scaled [6] [mL/min/kg],solubility kinetic (physchem) [µM],CLint [15] [µL/min/mg],Stability [16],logD [23],half-life [26] [min],other results
CN(C)C(=O)[C@H](O)[C@H](Cc1ccccc1)NC(=O)c1cc2cc(Cl)ccc2[nH]1,3310,3170,92.2,–,–,–,–,–,–,IC50 [1]: 110 nM; solubility [2]: < 1000 µg/mL
O=C(O)CNC(=O)[C@H](Cc1ccccc1)NC(=O)c1cc2cc(Cl)ccc2[nH]1,3240,7150,289,< 38,188,< 9.6,Stable,0.72,> 145,OD (Mus musculus [4]): 4.86; plasma glucose (Mus musculus [5]): 6.05 mM; AUC (Mus musculus [7]): 451 mg/dL×min; Stability [8]: Stable; plasma glucose (Mus musculus [9]): 9.52 mM; plasma glucose (Mus musculus [10]): 7.4 mM; plasma glucose (Mus musculus [11]): 8.92 mM; plasma glucose (Mus musculus [12]): 7.47 mM; Activity (Mus musculus [13]): Active; plasma glucose (Mus musculus [14]): 9.03 mM; Stability [17]: Stable; plasma glucose (Mus musculus [18]): 7.62 mM; plasma glucose (Mus musculus [19]): 6.7 mM; AUC (Mus musculus [20]): 449 mg/dL×min; AUC (Mus musculus [21]): 416 mg/dL×min; OD (Mus musculus [22]): 4.85; Stability [24]: Unstable; plasma glucose (Mus musculus [25]): 6.83 mM; OD (Mus musculus [27]): 4.89; Activity (Mus musculus [28]): 446.25 mg/dL
CN(C)C(=N)NC(=N)N [METFORMIN],–,–,–,–,–,–,–,–,–,OD (Mus musculus [29]): 5; AUC (Mus musculus [30]): 374 mg/dL×min; plasma glucose (Mus musculus [31]): 5.79 mM; plasma glucose (Mus musculus [32]): 8.85 mM; OD (Mus musculus [33]): 4.76
CN(C)CCCN1c2ccccc2Sc2ccc(Cl)cc21 [CHLORPROMAZINE],–,–,–,–,–,–,–,3.23,–,–
O=C(N[C@@H](Cc1ccc(O)cc1)c1nc2ccccc2[nH]1)c1cc2cc(Cl)ccc2[nH]1,8390,9460,578,–,–,–,–,–,–,–
NC(=O)[C@@H](Cc1ccccc1)NC(=O)CNC(=O)c1cc2cc(Cl)ccc2[nH]1,6470,7650,555,< 38,36.8,< 9.6,Unstable,3.32,> 145,Stability [8]: Stable; Stability [17]: Stable
O=C(O)Cc1ccccc1Nc1c(Cl)cccc1Cl [DICLOFENAC],–,–,–,203,–,51.2,–,–,27.1,–
COC(=O)CNC(=O)[C@H](Cc1ccccc1)NC(=O)c1cc2cc(Cl)ccc2[nH]1,662,720,48.7,356,1.89,90,Unstable,3.95,15.4,Stability [34]: Unstable; degraded at 24 h [35]: 50%

# — ChEMBL document CHEMBL4622898, “Synthesis, in vitro ADME profiling and in vivo pharmacological evaluation of novel glycogen phosphorylase inhibitors” (Bioorg Med Chem Lett, 2020)
